Measured values taken from the supplement of paper PMC10307832.

Assays:
Experiment in all cases: relative viability (nuclei count vs DMSO), 5 days (fraction); higher = more cells survive
BAY61-3606 + Alpelisib = compound: COC1=C(C=C(C=C1)C2=CC3=NC=CN3C(=N2)NC4=C(C=CC=N4)C(=O)N)OC [BAY61-3606] + Cc1nc(NC(=O)N2CCC[C@H]2C(N)=O)sc1-c1ccnc(C(C)(C)C(F)(F)F)c1 [Alpelisib] (partner 2 µM)
Method in brief: (§1)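 Cells from lung cancer lines were seeded into 1536-well plates and, one day later, dosed by pin tool. Treatments were either a single drug or a fixed dose of an anchor drug with five library-drug doses (not always all listed) in √10 steps. After 5 days, nuclei were stained in a one-step fixation (final 0.05% Triton X-100, 1% formaldehyde, 1 ug/ml Hoechst) and counted on 4× images, and relative viability is the treated-to-vehicle nuclei ratio, as the median of duplicate plates.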

Doxorubicin + Pemetrexed = compound: COc1cccc2c1C(=O)c1c(O)c3c(c(O)c1C2=O)C[C@@](O)(C(=O)CO)C[C@@H]3O[C@H]1C[C@H](N)[C@H](O)[C@H](C)O1 [Doxorubicin] + Nc1nc2[nH]cc(CCc3ccc(C(=O)N[C@@H](CCC(=O)O)C(=O)O)cc3)c2c(=O)[nH]1 [Pemetrexed] (partner 0.2 µM)
Method in brief: as §1

BAY61-3606 = compound: COC1=C(C=C(C=C1)C2=CC3=NC=CN3C(=N2)NC4=C(C=CC=N4)C(=O)N)OC [BAY61-3606]
Method in brief: (§2)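 Hoechst staining, done together with fixation and permeabilisation, marked nuclei for 4× imaging and MetaXpress counting. This followed 5 days without medium change after lung cancer cell lines, kept overnight at 37 °C in 1536-well plates, were pinned with five library-drug doses (not always all listed) spaced by √10 on vehicle-anchored plates. Viability is the ratio of treated-well to vehicle-well nuclei, expressed as a median across plates. Plates passed only at control CV below 25% with at least one doubling.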

Doxorubicin = compound: COc1cccc2c1C(=O)c1c(O)c3c(c(O)c1C2=O)C[C@@](O)(C(=O)CO)C[C@@H]3O[C@H]1C[C@H](N)[C@H](O)[C@H](C)O1 [Doxorubicin]
Method in brief: as §2

Cell Line | relative viability (BAY61-3606 + Alpelisib; first compound 0.02 µM) | relative viability (BAY61-3606 + Alpelisib; first compound 0.06325 µM) | relative viability (BAY61-3606 + Alpelisib; first compound 0.2 µM) | relative viability (BAY61-3606 + Alpelisib; first compound 0.6325 µM) | relative viability (BAY61-3606 + Alpelisib; first compound 2 µM) | relative viability (Doxorubicin + Pemetrexed; first compound 0.001 µM) | relative viability (Doxorubicin + Pemetrexed; first compound 0.003162 µM) | relative viability (Doxorubicin + Pemetrexed; first compound 0.01 µM) | relative viability (Doxorubicin + Pemetrexed; first compound 0.03162 µM) | relative viability (Doxorubicin + Pemetrexed; first compound 0.1 µM) | relative viability (BAY61-3606; 0.02 µM) | relative viability (BAY61-3606; 0.06325 µM) | relative viability (BAY61-3606; 0.2 µM) | relative viability (BAY61-3606; 0.6325 µM) | relative viability (BAY61-3606; 2 µM) | relative viability (Doxorubicin; 0.001 µM) | relative viability (Doxorubicin; 0.003162 µM) | relative viability (Doxorubicin; 0.01 µM) | relative viability (Doxorubicin; 0.03162 µM) | relative viability (Doxorubicin; 0.1 µM)
NCI-H1734 | 0.706 | 0.615 | 0.653 | 0.654 | 0.413 | 0.468 | 0.404 | 0.398 | 0.448 | 0.421 | 1.04 | 0.979 | 0.746 | 0.935 | 0.602 | 0.923 | 1.11 | 0.876 | 0.669 | 0.608
NCI-H1563 | 1.02 | 0.905 | 0.894 | 0.894 | 0.683 | 0.734 | 0.825 | 0.838 | 0.777 | 0.536 | 1.16 | 0.993 | 1.01 | 0.994 | 0.814 | 0.939 | 0.939 | 0.747 | 0.698 | 0.683
NCI-H441 | 0.734 | 0.796 | 0.809 | 0.848 | 0.439 | 0.253 | 0.264 | 0.265 | 0.229 | 0.224 | 1.12 | 1.15 | 1.01 | 1.15 | 0.682 | 0.687 | 0.957 | 0.677 | 0.359 | 0.326
H3255 | 0.708 | 0.635 | 0.673 | 0.874 | 0.735 | 0.526 | 0.558 | 0.559 | 0.535 | 0.523 | 0.976 | 0.905 | 0.928 | 1.16 | 0.898 | 0.892 | 0.993 | 0.931 | 0.849 | 0.727
Calu-6 | 1.04 | 1.13 | 0.946 | 0.956 | 0.703 |  |  |  |  |  | 1.07 | 1.05 | 0.979 | 0.963 | 0.807 | 0.966 | 1.02 | 0.929 | 0.566 | 0.431
NCI-H1915 | 1.07 | 1.08 | 1.06 | 1.03 | 0.93 | 0.533 | 0.529 | 0.525 | 0.568 | 0.502 | 0.993 | 0.996 | 0.826 | 1.01 | 0.786 | 0.955 | 1.03 | 0.966 | 1.03 | 1.01
EBC-1 | 0.907 | 0.902 | 0.869 | 0.928 | 0.686 |  |  |  |  |  | 1.04 | 0.999 | 0.953 | 1.04 | 0.888 | 1 | 1.09 | 1.01 | 0.702 | 0.534
NCI-H1623 |  |  |  |  |  |  |  |  |  |  | 0.892 | 0.891 | 0.911 | 0.953 | 0.927 | 0.934 | 0.968 | 0.965 | 0.947 | 0.992
NCI-H1648 |  |  |  |  |  | 0.756 | 0.746 | 0.724 | 0.695 | 0.632 | 0.832 | 0.89 | 1.16 | 0.74 | 0.804 | 0.898 | 1.07 | 0.719 | 0.864 | 0.882
NCI-H522 |  |  |  |  |  | 0.949 | 1.02 | 1.16 | 0.844 | 0.878 | 0.961 | 0.907 | 0.953 | 0.954 | 0.933 | 0.741 | 0.938 | 0.988 | 0.838 | 0.894
NCI-H1650 |  |  |  |  |  | 0.37 | 0.374 | 0.381 | 0.242 | 0.19 | 1.06 | 0.883 | 0.964 | 1.11 | 0.527 | 0.823 | 0.809 | 0.481 | 0.255 | 0.159
IA-LM | 0.805 |  | 0.98 | 0.748 | 0.661 |  |  |  |  |  | 0.984 | 0.864 | 0.956 | 1.03 | 0.86 | 0.902 | 1.04 | 0.889 | 0.749 | 0.508
NCI-H2342 |  |  |  |  |  | 0.802 | 0.843 | 0.761 | 0.711 | 0.818 | 0.966 | 1.02 | 0.908 | 0.966 | 1.15 | 0.938 | 1.03 | 0.929 | 0.763 | 0.877
NCI-H1299 | 1.05 | 1.08 | 1.07 | 1 | 1.03 |  |  |  |  |  | 1.02 | 1.01 | 1.02 | 1.04 | 0.989 | 1.02 | 1.05 | 0.984 | 1.02 | 0.943
A549 | 0.81 | 0.658 | 0.846 | 0.718 | 0.573 |  |  |  |  |  | 1.01 | 1.07 | 0.959 | 1.05 | 0.857 | 1 | 0.991 | 0.869 | 0.395 | 0.503
SW 900 |  |  |  |  |  |  | 0.461 | 0.465 | 0.498 | 0.412 | 0.895 | 0.762 | 0.678 | 0.937 | 0.813 | 0.671 | 0.992 | 0.774 | 0.665 | 0.404
ChaGo-K-1 |  |  |  |  |  | 0.264 | 0.254 | 0.231 | 0.259 | 0.273 | 0.97 | 0.942 | 0.918 | 0.949 | 0.945 | 1.06 | 1.09 | 0.923 | 0.892 | 0.563
ABC-1 | 1.06 | 1.14 | 1.15 | 0.968 | 1.06 |  |  |  |  |  | 1.04 | 0.942 | 0.986 | 1.03 | 0.854 | 0.943 | 1.01 | 0.811 | 0.414 | 0.307
NCI-H1703 | 0.377 | 0.385 | 0.317 | 0.305 | 0.218 |  |  |  |  |  | 1.16 | 0.789 | 0.77 | 0.919 | 0.558 | 0.857 | 0.936 | 0.812 | 0.4 | 0.351
